A word on the EC50: it is the concentration needed to bring the measured effect to its halfway point. One may read the CC50 as the concentration that lowers cell viability or growth by half.

Here are results for 27 molecules from US9884818B2, “Sulphamoylpyrrolamide derivatives and the use thereof as medicaments for the treatment of hepatitis B” (Janssen Sciences Ireland UC, priority 2013, dated 2018).

Data set [1] relates to HBV. The data set can be described thus: Anti-HBV activity, HepG2.2.15 stable transfected cell line, HBV DNA from secreted virions by realtime PCR. To be noted: Hepatitis B virus, HepG2.2.15, 144 h, HepG2.2.15 cells, 6 days of treatment, HBV DNA from secreted virions; read-out: HepG2 2.15 EC50. It is filed as cell-based.
Data set [2] is described as follows: Cytotoxicity in HepG2 cells, Resazurin viability assay. To be noted: human, HepG2 cells, HepG2 4 days CC50 (μM), incubated for 4 days, Resazurin assay. On the technique in general: Resazurin is reduced to fluorescent resorufin, in cell work by metabolically active cells.
Data set [3] deals with HBV. As to the kind of experiment: Anti-HBV activity, HepG2.117 inducibly HBV producing cell line (Tet-off), intracellular HBV DNA by realtime PCR. To be noted: Hepatitis B virus, HepG2.117, 72 h, HepG2.117 cells, 3 days of treatment, intracellular HBV DNA; read-out: HepG2 117 EC50. It is filed as cell-based.

As for `Cc1cc(NC(=O)c2cc(S(=O)(=O)NC3(CCO)COC3)cn2C)ccc1F` [Compound 14, N-(4-fluoro-3-methyl-phenyl)-4-[[3-(2-hydroxyethyl)oxetan-3-yl]sulfamoyl]-1-methyl-pyrrole-2-carboxamide], the EC50 with HBV [1] stood at 40 nM; with HBV [3] it was 20 nM. The molecule further gave a CC50 at 4 days in data set [2] of more than 25 µM.
In the same order, the values of `Cc1cc(NC(=O)c2cc(S(=O)(=O)N[C@H]3C[C@@H](O)C3)cn2C)ccc1F` [Compound 15, N-(4-fluoro-3-methyl-phenyl)-4-[(3-hydroxycyclobutyl)sulfamoyl]-1-methyl-pyrrole-2-carboxamide] are 160 nM, 130 nM and more than 25 µM.
On to `Cc1cc(NC(=O)c2cc(S(=O)(=O)NC(C)(C)C)cn2C)ccc1F` [Compound 16, 4-(tert-butylsulfamoyl)-N-(4-fluoro-3-methyl-phenyl)-1-methyl-pyrrole-2-carboxamide], for which the EC50 in the data set with HBV [1] turned out to be 60 nM; in the data set with HBV [3], 30 nM. Moreover, the CC50 at 4 days in data set [2] is more than 25 µM.
In the same order, the values of `Cc1cc(NC(=O)c2cc(S(=O)(=O)NC3(CC#N)COC3)cn2C)ccc1F` [Compound 17, 4-[[3-(cyanomethyl)oxetan-3-yl]sulfamoyl]-N-(4-fluoro-3-methyl-phenyl)-1-methyl-pyrrole-2-carboxamide] are 30 nM, 20 nM and more than 25 µM.
In the same order, the values of `Cc1cc(NC(=O)c2cc(S(=O)(=O)NC3(CC#N)CC3)cn2C)ccc1F` [Compound 18, 4-[[1-(cyanomethyl)cyclopropyl]sulfamoyl]-N-(4-fluoro-3-methyl-phenyl)-1-methyl-pyrrole-2-carboxamide] are less than 20 nM, 30 nM and more than 25 µM.
For the molecule `Cn1cc(S(=O)(=O)NC(C)(C)C)cc1C(=O)Nc1ccc(F)c(F)c1` [Compound 19, 4-(tert-butylsulfamoyl)-N-(3,4-difluorophenyl)-1-methyl-pyrrole-2-carboxamide], the EC50 in the data set with HBV [1] turned out to be 60 nM; with HBV [3], 80 nM. In data set [2], this molecule yielded a CC50 at 4 days of more than 25 µM.
Take `Cn1cc(S(=O)(=O)NC2(C)COC2)cc1C(=O)Nc1ccc(F)c(F)c1` [Compound 20, N-(3,4-difluorophenyl)-1-methyl-4-[(3-methyloxetan-3-yl)sulfamoyl]pyrrole-2-carboxamide]: the EC50 with HBV [1] is 70 nM; with HBV [3] it was 60 nM. Moreover, the CC50 at 4 days in data set [2] was more than 25 µM.
For `Cn1cc(S(=O)(=O)N[C@H]2CCOC2)cc1C(=O)Nc1ccc(F)c(F)c1` [Compound 21, N-(3,4-difluorophenyl)-1-methyl-4-[[(3S)-tetrahydrofuran-3-yl]-sulfamoyl]pyrrole-2-carboxamide], the EC50 was 220 nM in the data set on HBV [1] and 840 nM in the data set on HBV [3]. The molecule further returned a CC50 at 4 days in data set [2] of more than 25 µM.
`CC(C)NS(=O)(=O)c1cc(C(=O)Nc2ccc(F)c(F)c2)n(C)c1` [Compound 22, N-(3,4-difluorophenyl)-4-(isopropylsulfamoyl)-1-methyl-pyrrole-2-carboxamide]: the EC50 in the data set with HBV [1] amounted to 80 nM; in the data set on HBV [3] it was 70 nM. For the same molecule, the CC50 at 4 days in data set [2] was more than 25 µM.
In the same order, the values of `CC[C@@H](C)NS(=O)(=O)c1cc(C(=O)Nc2ccc(F)c(F)c2)n(C)c1` [Compound 23, N-(3,4-difluorophenyl)-1-methyl-4-[[(1R)-1-methylpropyl]sulfamoyl]pyrrole-2-carboxamide] are 20 nM, 130 nM and more than 25 µM.
As to `C[C@H](CO)NS(=O)(=O)c1cc(C(=O)Nc2ccc(F)c(F)c2)n(C)c1` [Compound 24, N-(3,4-difluorophenyl)-4-[[(1R)-2-hydroxy-1-methyl-ethyl]sulfamoyl]-1-methyl-pyrrole-2-carboxamide], the EC50 turned out to be 200 nM with HBV [1] and 300 nM in the data set on HBV [3]. Also, in data set [2], the CC50 at 4 days is more than 25 µM.
Consider `Cn1cc(S(=O)(=O)N[C@H]2C[C@@H](O)C2)cc1C(=O)Nc1ccc(F)c(F)c1` [Compound 25, N-(3,4-difluorophenyl)-4-[(3-hydroxycyclobutyl)sulfamoyl]-1-methyl-pyrrole-2-carboxamide], for which the EC50 amounted to 340 nM with HBV [1] and 230 nM in the data set on HBV [3]. The same molecule came in with a CC50 at 4 days in data set [2] of more than 25 µM.
For the molecule `Cn1cc(S(=O)(=O)N[C@H]2CCOC2)cc1C(=O)Nc1cc(F)c(F)c(F)c1` [Compound 26, 1-methyl-[[(3S)-tetrahydrofuran-3-yl]sulfamoyl]-N-(3,4,5-trifluoro-phenyl)pyrrole-2-carboxamide], the EC50 in the data set on HBV [1] was 140 nM; in the data set on HBV [3] it was 260 nM. Besides, the CC50 at 4 days in data set [2] was more than 25 µM.
In the same order, the values of `Cn1cc(S(=O)(=O)NC2(C)COC2)cc1C(=O)Nc1cc(F)c(F)c(F)c1` [Compound 27, 1-methyl-4-[(3-methyloxetan-3-yl)sulfamoyl]-N-(3,4,5-trifluorophenyl)pyrrole-2-carboxamide] are 40 nM, 60 nM and more than 25 µM.
`Cn1cc(S(=O)(=O)NC2(C)COC2)cc1C(=O)Nc1cccc(C(F)(F)F)c1` [Compound 28, 1-methyl-4-[(3-methyloxetan-3-yl)sulfamoyl]-N-[3-(trifluoromethyl)-phenyl]pyrrole-2-carboxamide]: the EC50 is 100 nM in the data set on HBV [1] and 140 nM in the data set on HBV [3]. For the same molecule, the CC50 at 4 days in data set [2] is more than 25 µM.
Take `CCn1cc(S(=O)(=O)NC(C)C)cc1C(=O)Nc1ccc(F)c(C)c1` [Compound 29, 1-ethyl-N-(4-fluoro-3-methyl-phenyl)-4-(isopropylsulfamoyl)pyrrole-2-carboxamide]: the EC50 in the data set on HBV [1] was 150 nM; with HBV [3] it was 210 nM. The molecule further had a CC50 at 4 days in data set [2] of more than 25 µM.
The like results for `CCn1cc(S(=O)(=O)N[C@H]2CCOC2)cc1C(=O)Nc1ccc(F)c(C)c1` [Compound 30, 1-ethyl-N-(4-fluoro-3-methyl-phenyl)-4-[[(3S)-tetrahydrofuran-3-yl]-sulfamoyl]pyrrole-2-carboxamide] were, in that order, 450 nM, 330 nM and more than 25 µM.
For the molecule `Cc1cc(NC(=O)c2cc(S(=O)(=O)N[C@H]3CCOC3)cn2C)cc(C)c1F` [Compound 31, N-(4-fluoro-3,5-dimethyl-phenyl)-1-methyl-4-[[(3S)-tetrahydrofuran-3-yl]-sulfamoyl]pyrrole-2-carboxamide], the results for the EC50 in the data set with HBV [1] and in the data set with HBV [3] were 130 nM and 390 nM, respectively. The molecule further yielded a CC50 at 4 days in data set [2] of more than 25 µM.
For `Cc1cc(F)cc(NC(=O)c2cc(S(=O)(=O)N[C@H]3CCOC3)cn2C)c1` [Compound 32, N-(3-fluoro-5-methyl-phenyl)-1-methyl-4-[[(3S)-tetrahydrofuran-3-yl]-sulfamoyl]pyrrole-2-carboxamide], the EC50 in the data set on HBV [1] was 180 nM; with HBV [3], 340 nM. The molecule further returned a CC50 at 4 days in data set [2] of more than 25 µM.
On to `Cc1cc(NC(=O)c2cc(S(=O)(=O)NC(C)C)cn2C)cc(F)c1F` [Compound 33, N-(3,4-difluoro-5-methyl-phenyl)-4-(isopropylsulfamoyl)-1-methyl-pyrrole-2-carboxamide], for which the EC50 with HBV [1] turned out to be 30 nM; in the data set with HBV [3] it was 40 nM. In addition, the CC50 at 4 days in data set [2] was more than 25 µM.
Regarding `CC[C@@H](C)NS(=O)(=O)c1cc(C(=O)Nc2cc(C)c(F)c(F)c2)n(C)c1` [Compound 34, N-(3,4-difluoro-5-methyl-phenyl)-1-methyl-4-[[(1R)-1-methylpropyl]-sulfamoyl]pyrrole-2-carboxamide], the EC50 in the data set with HBV [1] was 30 nM; in the data set on HBV [3] it was less than 20 nM. The molecule further returned a CC50 at 4 days in data set [2] of more than 25 µM.
As for `Cc1cc(NC(=O)c2cc(S(=O)(=O)NC3(C)COC3)cn2C)cc(F)c1F` [Compound 35, N-(3,4-difluoro-5-methyl-phenyl)-1-methyl-4-[(3-methyloxetan-3-yl)-sulfamoyl]pyrrole-2-carboxamide], the EC50 with HBV [1] was determined as 30 nM; in the data set with HBV [3], 20 nM. The same molecule registered a CC50 at 4 days in data set [2] of more than 25 µM.
The like results for `Cc1cc(NC(=O)c2cc(S(=O)(=O)N[C@H](C)CO)cn2C)cc(F)c1F` [Compound 36, N-(3,4-difluoro-5-methyl-phenyl)-4-[[(1R)-2-hydroxy-1-methyl-ethyl]-sulfamoyl]-1-methyl-pyrrole-2-carboxamide] were, in that order, 80 nM, 40 nM and more than 25 µM.
Take `Cc1cc(NC(=O)c2cc(S(=O)(=O)N[C@H]3CCOC3)cn2C)cc(F)c1F` [Compound 37, N-(3,4-difluoro-5-methyl-phenyl)-1-methyl-4-[[(3S)-tetrahydrofuran-3-yl]-sulfamoyl]pyrrole-2-carboxamide]: the EC50 is 730 nM in the data set on HBV [1] and 380 nM with HBV [3]. Also, the CC50 at 4 days in data set [2] is more than 25 µM.
For the molecule `Cc1cc(NC(=O)c2cc(S(=O)(=O)NC(C)(C)C)cn2C)cc(F)c1F` [Compound 38, 4-(tert-butylsulfamoyl)-N-(3,4-difluoro-5-methyl-phenyl)-1-methyl-pyrrole-2-carboxamide], the values for the EC50 in the data set on HBV [1] and in the data set with HBV [3] were 50 nM and 20 nM, respectively. For the same molecule, the CC50 at 4 days in data set [2] was more than 25 µM.
On to `Cn1cc(S(=O)(=O)NC2(C)COC2)cc1C(=O)Nc1ccc(F)c(C(F)F)c1` [Compound 39, N-[3-(difluoromethyl)-4-fluoro-phenyl]-1-methyl-4-[(3-methyloxetan-3-yl)sulfamoyl]pyrrole-2-carboxamide], for which the EC50 was found to be 50 nM with HBV [1] and 40 nM with HBV [3]. Moreover, in data set [2], the CC50 at 4 days was more than 25 µM.
The like results for `C[C@H](CO)NS(=O)(=O)c1cc(C(=O)Nc2ccc(F)c(C(F)F)c2)n(C)c1` [Compound 40, N-[3-(difluoromethyl)-4-fluoro-phenyl]-4-[[(1R)-2-hydroxy-1-methyl-ethyl]sulfamoyl]-1-methyl-pyrrole-2-carboxamide] were, in that order, 200 nM, 120 nM and more than 25 µM.
